# Test results reported in article PMC6017062, “Probing the Inhibitor versus Chaperone Properties of sp^2-Iminosugars towards Human β-Glucocerebrosidase: A Picomolar Chaperone for Gaucher Disease” (Molecules : A Journal of Synthetic Chemistry and Natural …, 2018).
# Tests used:
# [1] = biological target: T1, α-galactosidase from green coffee beans (α-Galase) (Coffea arabica, UniProt Q42656); experiment: Commercial glycosidase inhibition: α-galactosidase from green coffee beans (α-Galase); format: biochemical; details: mean ± SD, three determinations; competitive; n.i. = no inhibition detected at 1 mM
# T1 construct: purchased
# T1 sequence (Q42656 16-378): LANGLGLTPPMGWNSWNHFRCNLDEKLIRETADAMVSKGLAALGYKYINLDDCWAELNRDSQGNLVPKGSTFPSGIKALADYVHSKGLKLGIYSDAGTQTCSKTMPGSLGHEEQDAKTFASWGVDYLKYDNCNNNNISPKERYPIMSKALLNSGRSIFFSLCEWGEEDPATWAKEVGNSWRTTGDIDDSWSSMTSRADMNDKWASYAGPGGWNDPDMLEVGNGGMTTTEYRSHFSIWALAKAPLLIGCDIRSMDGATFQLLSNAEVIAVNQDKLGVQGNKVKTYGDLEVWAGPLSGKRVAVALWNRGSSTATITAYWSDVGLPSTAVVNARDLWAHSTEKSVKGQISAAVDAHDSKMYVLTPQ
# Source text: (§1) We first evaluated the inhibitory properties of the new nonreducing mono- and bicyclic sp^2-iminosugars 4–15 against a panel of commercial glycosidases that included the α-glucosidases maltase (yeast maltase; α-Glcase1) and isomaltase (α-Glcase2) from Saccharomyces cerevisiae and amyloglucosidase (α-Glcase3) from Aspergillus niger, the β-glucosidases from almonds (β-Glcase1) and bovine liver (β-Glcase2), the α-galactosidase from green coffee beans (α-Galase), the β-galactosidase from Escherichia coli (β-Galase), and the α-mannosidase from Jack bean (α-Manase).
# (§2) Inhibition constant (Ki) values were determined by spectrophotometrically measuring the residual hydrolytic activities of the glycosidases against the respective o- (for β-galactosidase from E. coli) or p-nitrophenyl α- or β-D-glycopyranoside (for other glycosidases) in the presence of the iminosugars. Each assay was performed in phosphate buffer or phosphate-citrate buffer (for α- or β-mannosidase and amyloglucosidase) at the optimal pH for the enzymes. The reactions were initiated by addition of the enzyme to a solution of the substrate in the absence or presence of various inhibitor concentrations. The mixture was incubated for 10–30 min at 37 °C or 55 °C (for amyloglucosidase) and the reaction was quenched by addition of 1 M Na2CO3. Reaction times were appropriate to obtain 10–20% conversion of the substrate in order to achieve linear rates. The absorbance of the resulting mixture was determined at 405 nm. Approximate value of Ki was determined from the slope of Dixon plots using a fixed concentration of substrate (around the Km value for the different glycosidases) and various concentrations of inhibitor. Full Ki determinations and enzyme inhibition mode were determined from the slope of Lineweaver–Burk plots and double reciprocal analysis.
# [2] = biological target: T2, amyloglucosidase (α-Glcase3) (Aspergillus niger, UniProt P69328); experiment: Commercial glycosidase inhibition: amyloglucosidase (α-Glcase3); format: biochemical; details: mean ± SD, three determinations; competitive; n.i. = no inhibition detected at 1 mM
# T2 construct: purchased
# T2 sequence (P69328 25-640): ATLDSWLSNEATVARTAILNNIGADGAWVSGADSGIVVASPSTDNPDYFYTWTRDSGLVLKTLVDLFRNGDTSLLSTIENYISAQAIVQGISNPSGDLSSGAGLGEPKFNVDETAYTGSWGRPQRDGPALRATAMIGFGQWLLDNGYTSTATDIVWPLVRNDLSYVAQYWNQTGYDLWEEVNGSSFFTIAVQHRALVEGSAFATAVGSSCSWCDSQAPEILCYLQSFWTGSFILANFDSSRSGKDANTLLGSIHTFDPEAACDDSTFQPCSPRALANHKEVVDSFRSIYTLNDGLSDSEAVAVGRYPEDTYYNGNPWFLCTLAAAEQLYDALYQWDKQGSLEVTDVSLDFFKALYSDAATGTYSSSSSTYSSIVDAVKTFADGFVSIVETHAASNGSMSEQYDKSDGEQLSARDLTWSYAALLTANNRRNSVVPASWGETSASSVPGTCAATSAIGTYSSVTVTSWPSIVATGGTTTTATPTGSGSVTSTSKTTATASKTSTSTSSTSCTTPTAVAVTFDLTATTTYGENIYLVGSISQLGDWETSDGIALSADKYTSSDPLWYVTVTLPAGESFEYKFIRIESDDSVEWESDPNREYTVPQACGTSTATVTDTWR
# Source text: as §1, §2
# GCase = biological target: T3, GCase (Homo sapiens, UniProt P04062); experiment: GCase activity in cultured healthy human fibroblasts; format: cell-based
# T3 construct: endogenous in cells; host or cells: normal human skin fibroblasts
# T3 sequence (P04062 40-536): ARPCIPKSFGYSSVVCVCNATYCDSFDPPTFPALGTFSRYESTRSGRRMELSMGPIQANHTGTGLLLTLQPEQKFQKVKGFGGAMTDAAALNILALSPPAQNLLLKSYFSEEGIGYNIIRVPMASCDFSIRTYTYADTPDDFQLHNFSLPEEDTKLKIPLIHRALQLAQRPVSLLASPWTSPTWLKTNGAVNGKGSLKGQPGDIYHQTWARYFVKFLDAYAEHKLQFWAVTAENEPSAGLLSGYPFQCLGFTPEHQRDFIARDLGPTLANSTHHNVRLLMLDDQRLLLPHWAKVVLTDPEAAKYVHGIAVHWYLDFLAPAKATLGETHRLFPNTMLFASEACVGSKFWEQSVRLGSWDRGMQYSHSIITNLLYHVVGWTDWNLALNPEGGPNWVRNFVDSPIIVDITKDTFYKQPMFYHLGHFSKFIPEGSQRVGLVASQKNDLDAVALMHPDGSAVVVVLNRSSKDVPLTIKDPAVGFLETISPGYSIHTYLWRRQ
# Experimental: For that purpose, cells were cultured for 5 days in the absence and in the presence of various concentrations of the compounds, then lysed, and the enzyme activity was determined using 4-methylumbelliferyl β-D-glucopyranoside as substrate. Higher GCase activities in the lysate indicate that larger amounts of the protein are present and that it is functional.
# Normal and Gaucher disease patients’ skin fibroblasts were cultured in Dulbecco modified Eagle’s medium (WAKO, Richmond, VA, USA) supplemented with 10% fetal bovine serum (Nichirei Biosci. Inc., Tokyo, Japan) at 37 °C in 5% CO2. For measurement of chaperone activities, fibroblasts were plated onto 35 mm dishes at 50,000 cells per dish. After 24 h incubation, the medium with the indicated concentrations of compound was applied and cells were cultured for 96 h. Then, the lysates in 0.1% Triton-X100/distilled H2O were collected from the cells and assayed for lysosomal GCase as described above. To measure the cytotoxic effect of the compounds, normal human fibroblasts were plated onto 35 mm dishes at 15,000 cells per dish and incubated overnight. Then, the medium was changed with or without compounds. After 24 h incubation, the supernatant of the cells was collected and measured by the lactate dehydrogenase assay (WAKO, Richmond, VA, USA). All the cell lines used were tested for mycoplasma contamination before conducting the chaperone and toxicity assays.
# pKa determination = format: physicochemical
# [3] = biological target: T4, β-galactosidase (β-Galase) (Escherichia coli, UniProt P00722); experiment: Commercial glycosidase inhibition: β-galactosidase from E. coli (β-Galase); format: biochemical; details: mean ± SD, three determinations; competitive; n.i. = no inhibition detected at 1 mM
# T4 construct: purchased
# T4 sequence (P00722 2-1024 limits assumed): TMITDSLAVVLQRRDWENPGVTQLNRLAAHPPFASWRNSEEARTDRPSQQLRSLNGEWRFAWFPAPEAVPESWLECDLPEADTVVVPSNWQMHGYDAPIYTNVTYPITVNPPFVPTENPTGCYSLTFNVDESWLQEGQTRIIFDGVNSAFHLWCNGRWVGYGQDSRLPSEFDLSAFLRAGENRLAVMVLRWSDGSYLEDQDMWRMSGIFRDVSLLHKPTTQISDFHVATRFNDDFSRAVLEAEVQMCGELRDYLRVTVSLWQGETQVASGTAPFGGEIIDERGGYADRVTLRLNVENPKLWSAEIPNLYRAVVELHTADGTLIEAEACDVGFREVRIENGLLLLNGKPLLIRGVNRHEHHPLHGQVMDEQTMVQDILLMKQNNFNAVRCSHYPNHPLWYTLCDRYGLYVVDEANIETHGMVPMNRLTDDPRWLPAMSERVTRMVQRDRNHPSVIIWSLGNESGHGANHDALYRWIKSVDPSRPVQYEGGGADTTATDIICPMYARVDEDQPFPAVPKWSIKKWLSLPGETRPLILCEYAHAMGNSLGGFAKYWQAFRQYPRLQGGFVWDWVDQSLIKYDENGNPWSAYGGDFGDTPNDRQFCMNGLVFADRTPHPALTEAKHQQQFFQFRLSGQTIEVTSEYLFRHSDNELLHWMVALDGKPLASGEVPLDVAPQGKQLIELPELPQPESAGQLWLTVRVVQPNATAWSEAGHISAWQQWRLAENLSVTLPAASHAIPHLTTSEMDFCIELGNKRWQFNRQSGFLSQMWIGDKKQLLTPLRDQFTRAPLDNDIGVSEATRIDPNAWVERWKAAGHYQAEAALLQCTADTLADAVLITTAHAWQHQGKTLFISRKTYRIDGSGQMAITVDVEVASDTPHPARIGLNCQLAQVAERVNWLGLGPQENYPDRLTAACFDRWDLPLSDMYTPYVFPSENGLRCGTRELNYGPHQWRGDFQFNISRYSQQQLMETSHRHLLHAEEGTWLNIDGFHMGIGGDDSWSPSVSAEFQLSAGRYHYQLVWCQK
# Source text: as §1, §2
# [4] = biological target: T5, α-glucosidase maltase (yeast maltase; α-Glcase1) (Saccharomyces cerevisiae, UniProt P53341); experiment: Commercial glycosidase inhibition: maltase (yeast maltase; α-Glcase1); format: biochemical; details: mean ± SD, three determinations; competitive; n.i. = no inhibition detected at 1 mM
# T5 construct: purchased
# T5 sequence (P53341 whole entry): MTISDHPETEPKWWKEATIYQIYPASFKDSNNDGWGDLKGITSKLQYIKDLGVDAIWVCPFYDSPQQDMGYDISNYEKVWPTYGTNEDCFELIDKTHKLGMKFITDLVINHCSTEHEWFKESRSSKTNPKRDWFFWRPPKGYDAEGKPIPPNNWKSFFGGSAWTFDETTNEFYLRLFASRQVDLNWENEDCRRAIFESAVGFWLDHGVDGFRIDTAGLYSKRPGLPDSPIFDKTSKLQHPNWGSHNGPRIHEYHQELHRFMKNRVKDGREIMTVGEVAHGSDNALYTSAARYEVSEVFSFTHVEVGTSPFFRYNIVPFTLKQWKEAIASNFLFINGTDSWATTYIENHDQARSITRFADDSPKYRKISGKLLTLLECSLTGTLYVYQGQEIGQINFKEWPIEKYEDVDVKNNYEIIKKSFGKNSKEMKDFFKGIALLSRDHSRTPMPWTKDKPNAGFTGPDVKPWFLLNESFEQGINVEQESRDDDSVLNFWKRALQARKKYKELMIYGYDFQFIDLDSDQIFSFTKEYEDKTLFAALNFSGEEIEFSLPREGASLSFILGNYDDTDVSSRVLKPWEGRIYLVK
# Source text: as §1, §2
smiles,measurement,setting,value
"CCCCCCCCN=C1SCC2C(O)C(O)C(O)CN12 (stereo not drawn) [Compound 4, 1-Deoxy-6-thio-5-N,6-S-(N′-octyliminomethylidene)nojirimycin]",Ki α-Galase,[1],n.i.
same,Ki α-Glcase3,[2],n.i.
same,GCase activity in lysates of healthy human fibroblasts at higher concentrations,GCase,significantly inhibited
same,GCase activity in lysates of healthy human fibroblasts at 20 μM,"GCase; 20 μM, 5 days culture",virtually full inhibition
same,pKa,pKa determination,8.3
same,Ki β-Galase,[3],n.i.
same,Ki α-Glcase1,[4],n.i. ^1
